Values of other authors, collected in US20070116778A1 (priority 2005, published 2007).

Legend:
HIV = details: human, in vivo

Q: With `CCCCCCCCCCCC(=O)OCC(O)CO` (stereo not drawn) [Monolaurin] as the compound, how does the “effect on the pathogen” value (Neisseria gonorrhoae) read?
A: Its value is “dissolves the outer lipid membrane and interferes with transcriptinase production”.

Q: What about the “patients with reduced viral load” value (HIV) of the same compound?
A: Its value is 8 patients.

Q: And the side effects (HIV)?
A: The side effects was “without any side effects”.
